From patent publication US7745450B2, “Pyrazolo[4,3-d]pyrimidines, processes for their preparation and methods for therapy” (Institute of Experimental Botany, priority 2002, dated 2010)
Where two headings read alike, the source gives them in different places.

Key:
Format in all cases: cell-based, human
[1] = tested on: adult bone marrow CD34+CD38− cells; experiment: Pre-CFU assay; details: for IC50: 14-day liquid culture, secondary methylcellulose culture
Text: Adult Bone Marrow Cells (ABM): Bone marrow samples were obtained by sternal puncture from hematologically normal donors undergoing cardiac surgery, after obtaining informed consent according to the ethical regulations of the University of Antwerp. Cells were collected in IMDM supplemented with 10% FCS and 100 U/ml heparin and separated by density gradient as mentioned for PBMC. After washing, cells were resuspended in IMDM 10% FCS and were sorted on a FACStar (Becton Dickinson, Erembodegem, Belgium).
Cell sorting: ABM cells (10^7 cells/ml) were incubated with 43A1 hybridoma supernatant at a 1/10 dilution for 20 minutes at 4° C. The supernatant of the 43A1 hybridoma (immunoglobulin IgG3) was kindly donated by Dr. H. J. Bühring (University of Tübingen, Germany) and was used as a source of anti-CD34 antibodies. After washing twice in IMDM, the cells were incubated with FITC-conjugated rabbit anti-mouse IgG (1/40 dilution) for 20 min at 4° C. After washing twice cells were incubated for 10 minutes with 5 μg mouse Ig and for 15 minutes with anti-CD38-PE (20 μl/10^6 cells). After washing twice in IMDM, the cells were sorted on a FACStarPlus cell sorter equipped with an water-cooled argon ion laser (INNOVA Enterprise Ion Laser) with multiple wave length outputs including UV (488 nm). Cells with low-to-medium forward and low side scatter, highly positive green (CD34) fluorescence, and an orange (CD38) fluorescence signal lower than the mean fluorescence of cells labeled with an irrelevant isotype-matched control antibody were retained as CD34^+CD38^− cells; cells with an orange fluorescence above this threshold were retained as CD34^+CD38^+ cells.
Pre-CFU: Pre-CFU assays were initiated by performing liquid cultures of CD34^+CD38^− in duplicate in 96-well flat-bottomed plates in IMDM/10% FCS, 1% bovine serum albumin (BSA), and different combinations of the following cytokines: 100 U/ml IL-1, 200 U/ml IL-6, 30 U/ml IL-3 and 100 ng/ml stel cell factor (SCF). Pre-CFU cultures were initiated with 500 CD34^+CD38^− cells/well (200 μl). After 14 days of culture at 37° C. in 7.5% O2 and 5% CO2 in a fully humidified incubator, the number of cells in each well was counted. Following this the cells were harvested, washed three times in IMDM/10% FCS, and plated in duplicate at 500 cells/well (1000 μl) in secondary methylcellulose CFU cultures as described for CFU assays.
Pre-CFU were cultured starting from adult bone marrow CD34^+CD38^− cells, that had been isolated using the FCM cell sorter. Novel compounds were added at different concentrations to the primary 14-day liquid culture. IC50 was calculated from dose-response curves from total clonogenic output after secondary methylcellulose culture (Tab. 8).

[2] = tested on: myeloid leukemia KG1 cell line; experiment: Cell proliferation of KG1, flow cytometric cell count; details: for Recovery of cell number after wash-out: washed free after 6 hours of exposure, 7 days drug-free medium
Procedure: (§1) Cell lines: Human leukemic cell lines were obtained from the American Type Culture Collection (ATCC, Rockville, Md., USA). They were cultured in Iscove's Modified Dulbecco's Medium (IMDM) supplemented with 10% heat inactivated fetal calf serum (FCS), 200 U/ml penicillin, 200 μg/ml streptomycin and 1 μg/ml amphotericin B. Cells were cultured in a 5% CO2-95% air fully humidified incubator. For effects on clonogenic output, 1000 cells/well were plated in duplicate in methylcellulose (0.9%), supplemented with 20% FCS for 14 days.
(§2) Cells were plated at 10000 per well in 200 μl IMDM medium and incubated with 0-50 μM of the novel compounds (Tab 8), by addition of drug directly to the culture medium and incubated at 37° C. for 96 hours (Tab 8). Absolute cell number was determined by addition of a known concentration Fluoresbrite microspheres (FITC) (Polysciences, Inc.). The absolute number of cells/well was calculated as: {(total number of beads added/well)/(number of beads measured)×(number of measured cells in the gate of interest)}. All analyses were performed with a FACScan (BD), using CELLQuest software (Becton Dickinson).
Response of the myeloid leukemia KG1 and T-lymphocyte leukemia Molt3 cell lines to the cytostatic effect of the novel compounds was determined using the above-mentioned standardized bead suspension that was used to determine the absolute cell number by flow cytometric (FCM) measurement. Cells were grown in the presence of increasing concentration of the novel compounds.
To determine reversibility of the effects of the novel compounds, cells were plated at 10000 per well and exposed to 0-50 μM of the compounds for the time indicated, followed by washing in phosphate-buffered saline (PBS) (Life Technologies) and reseeded into drug-free medium for 7 additional days. An identical set of cells was plated and exposed to the drugs for 7 additional days. After 7 days (168 hours), the relative cell number was assayed by flow cytometry.

[3] = tested on: PHA-stimulated lymphocytes (PBMC); experiment: Proliferation of PHA-stimulated lymphocytes (PBMC), flow cytometric cell count; details: 96 hours, IL-2
Procedure: Peripheral blood mononuclear cells (PBMC): Human peripheral blood mononuclear cells were isolated by density gradient (Ficoll-Hypaque) (LSM, ICN Biomedicals Inc.). PBMC were stimulated with 5 μg/ml phytohemaglutinin A (PHA) (Sigma) during 24-48 hours in IMDM supplemented with 10% FCS at 37° C. After washing off the PHA, PBMC were incubated with interleukin-2 (IL-2) (10 U/ml) (Genzyme).
as §2
PHA-stimulated lymphocytes (PBMC) were tested for their cytotoxicity as one of the normal counterparts of the cell lines. Cells were grown for 96 hours in the presence of IL-2 and different concentrations of the novel compounds and cell number was counted on the flow cytometer.

KG1 = experiment: Clonogenic output of KG1 in methylcellulose; details: 25 μM
Procedure: as §1
Clonogenic output of KG1 was tested in methylcellulose with 25 μM of some of the novel compounds. Colony output vs. control cultures without novel compound, was 16% for 26, 19% for […] and 0% for 201.

[4] = continuous exposure, 7 days (168 hours), read-out: IC50, KG1 cells exposed continuously

Compound | IC50 [1] | IC50 ([2]; 96 hours, read-out: KG1 IC50) | IC50 [2, 4] | IC50 ([1]; Homo sapiens, 336 h) | IC50 ([2]; Homo sapiens, KG-1, 96 hours, read-out: KG1 IC50) | Recovery of cell number after wash-out [2] | IC50 [3] | Colony output vs. control cultures (KG1) | Activity on pre-CFU compared with CFU [1] | IC50 ([3]; Homo sapiens, Lymphocyte)
5-(3-aminopropylamino)-7-benzylamino-3-isopropylpyrazolo[4,3-d]pyrimidine [Compound 17] | 10 µM | 6 ± 1 µM | 16 ± 1.7 µM |  |  | substantial recovery of cell number | 4 ± 0.2 µM |  |  | 
5-(3-hydroxypropylamino)-7-[(R,S)-(1-phenyl-2-hydroxyethyl)amino-3-isopropylpyrazolo[4,3-d]pyrimidine [Compound 172] | > 25 µM | 3 ± 1 µM | 7 ± 2 µM |  |  | substantial recovery of cell number | 4 ± 0.5 µM |  |  | 
CCCCCCNc1nc(NC(CO)c2ccccc2)c2[nH]nc(C(C)C)c2n1 (stereo not shown) [Compound 98, 5-(hexylamino)-7-(1-phenyl-2-hydroxyethylamino)-3-isopropylpyrazolo[4,3-d]pyrimidine] |  |  |  | > 25 µM | 5 ± 0.3 µM |  |  | 19% |  | 18 ± 1 µM

The next lines start with results.

IC50 [1] | IC50 ([2]; 96 hours, read-out: KG1 IC50) | IC50 [2, 4] | IC50 ([1]; Homo sapiens, 336 h) | IC50 ([2]; Homo sapiens, KG-1, 96 hours, read-out: KG1 IC50) | Compound | Recovery of cell number after wash-out [2] | IC50 [3] | Colony output vs. control cultures (KG1) | Activity on pre-CFU compared with CFU [1] | IC50 ([3]; Homo sapiens, Lymphocyte)
1.5 µM | 12 ± 1.3 µM | 16 ± 1.3 µM |  |  | 5-(3-aminoethylamino)-7-(3,4-dihydroxybenzyl)amino-3-isopropylpyrazolo[4,3-d]pyrimidine [Compound 201] | substantial recovery of cell number | 8 ± 2.2 µM | 0% |  | 
86 µM | 13 ± 0.2 µM |  |  |  | 5-(methylthio)-7-[N-(3,4-dihydroxybenzyl-N-methyl]amino-3 isopropylpyrazolo[4,3-d]pyrimidine [Compound 26] |  | 16.5 ± 0.8 µM | 16% | more active on pre-CFU than on CFU | 
